Test system: RBD
Assay type: binding, SARS-CoV-2

Substance	biosensor activity with RBD-Lg, ACE2 deletions and mutants
K353A	almost abolished biosensor activity
Sm-ACE2-18–415	reduced biosensor activity
ACE2 K31	significantly reduced biosensor activity
Sm-ACE2-18-515	significantly lower than that of Sm-ACE2-18-615/RBD-Lg

Reference: PMC8227885 (Viruses, 2021)
